Here are results for 3 compounds from patent publication US10653659B2, “Compositions comprising a compound from the family of avermectins and an agonist compound for at least one of the retinoic acid receptors for treating acne” (GALDERMA SA, priority 2014, dated 2020).

“And” between values parts separate entries of the source, which are not always exact repeats. Equal values may be shown once.

The test system of this assay is patients with acne. The assay is described as follows: Comparative clinical study among patients with acne. It is filed as in vivo, human. The conditions noted are these: Treatment A (first treatment, retinoids without ivermectin); scale from 0 to 5; one acne patient per line; duration varies per patient. The procedure:
A comparative study was carried out among patients with acne. […] These same patients then received a second treatment (Treatment B) containing ivermectin and were followed over several months.
By way of example, mention may be made of: Differin 0.3%®, Epiduo®, Metrogel® and Epiduo Forte® marketed by Galderma Laboratories, Accutane® from Roche Laboratories, and Ziana® from Medicis Pharmaceutical Corp.

As for `COc1ccc(-c2ccc3cc(C(=O)O)ccc3c2)cc1C12CC3CC(CC(C3)C1)C2` [adapalene 0.3%, 6-[3-(1-adamantyl)-4-methoxyphenyl]-2-naphthoic acid], the Satisfaction score was 1 and 0.

In turn, `CC1=C(/C=C/C(C)=C/C=C/C(C)=C/CO)C(C)(C)CCC1` [retinol 0.05%, retinol] came in with a Satisfaction score of 0.

The compound `CC1=C(/C=C/C(C)=C/C=C/C(C)=C/C(=O)O)C(C)(C)CCC1` [tretinoin 0.05%, tretinoin] gave a Satisfaction score of 0.
